What all share (type): functional
Assay [1] relates to Penicillium chrysogenum. The assay can be described thus: Antifungal activity against Penicillium chrysogenum assessed as zone of inhibition at 100 ug/well after 48 hrs by agar well diffusion method. The note with it: for zone of inhibition at 100 µg/disc: read-out: DIZ. Background: Agar diffusion results depend on both activity and mobility in agar.
Assay [2] deals with Staphylococcus aureus. As to the kind of experiment: Antimicrobial activity against Staphylococcus aureus assessed as zone of inhibition at 75 ug/well after 24 hrs by agar well diffusion method. The note with it: for zone of inhibition at 75 µg/disc: read-out: DIZ.
In assay [3] the test system is Klebsiella pneumoniae. As to the kind of experiment: Antimicrobial activity against Klebsiella pneumoniae assessed as zone of inhibition at 50 ug/well after 24 hrs by agar well diffusion method. To be noted: for zone of inhibition at 50 µg/disc: read-out: DIZ.
Assay [4] has as its system Aspergillus niger. The assay can be described thus: Antifungal activity against Aspergillus niger assessed as zone of inhibition at 50 ug/well after 48 hrs by agar well diffusion method.
The test system of assay [5] is Bacillus subtilis. As to the kind of experiment: Antimicrobial activity against Bacillus subtilis assessed as zone of inhibition at 50 ug/well after 24 hrs by agar well diffusion method. The note with it: for zone of inhibition at 50 µg/disc: read-out: DIZ.
Assay [6] has as its system Aspergillus niger. As to the kind of experiment: Antifungal activity against Aspergillus niger assessed as zone of inhibition at 100 ug/well after 48 hrs by agar well diffusion method. The note with it: read-out: DIZ.
In assay [7] the test system is Pseudomonas aeruginosa. The assay can be described thus: Antimicrobial activity against Pseudomonas aeruginosa assessed as zone of inhibition at 100 ug/well after 24 hrs by agar well diffusion method. To be noted: for zone of inhibition at 100 µg/disc: read-out: DIZ.
For assay [8], the system named is Pseudomonas aeruginosa. As to the kind of experiment: Antimicrobial activity against Pseudomonas aeruginosa assessed as zone of inhibition at 50 ug/well after 24 hrs by agar well diffusion method.
Assay [9] deals with Staphylococcus aureus. The assay can be described thus: Antimicrobial activity against Staphylococcus aureus assessed as zone of inhibition at 50 ug/well after 24 hrs by agar well diffusion method.
The test system of assay [10] is Aspergillus niger. The assay can be described thus: Antifungal activity against Aspergillus niger assessed as zone of inhibition at 75 ug/well after 48 hrs by agar well diffusion method. The note with it: read-out: DIZ.
In assay [11] the test system is Bacillus subtilis. The assay can be described thus: Antimicrobial activity against Bacillus subtilis assessed as zone of inhibition at 100 ug/well after 24 hrs by agar well diffusion method. The note with it: for zone of inhibition at 100 µg/disc: read-out: DIZ.
For assay [12], the system named is Klebsiella pneumoniae. The assay can be described thus: Antimicrobial activity against Klebsiella pneumoniae assessed as zone of inhibition at 100 ug/well after 24 hrs by agar well diffusion method. To be noted: for zone of inhibition at 100 µg/disc: read-out: DIZ.
For assay [13], the system named is Klebsiella pneumoniae. The assay can be described thus: Antimicrobial activity against Klebsiella pneumoniae assessed as zone of inhibition at 75 ug/well after 24 hrs by agar well diffusion method. The note with it: for zone of inhibition at 75 µg/disc: read-out: DIZ.
For assay [14], the system named is Staphylococcus aureus. The assay can be described thus: Antimicrobial activity against Staphylococcus aureus assessed as zone of inhibition at 100 ug/well after 24 hrs by agar well diffusion method. The note with it: for zone of inhibition at 100 µg/disc: read-out: DIZ.
Assay [15] has as its system Pseudomonas aeruginosa. As to the kind of experiment: Antimicrobial activity against Pseudomonas aeruginosa assessed as zone of inhibition at 75 ug/well after 24 hrs by agar well diffusion method. To be noted: for zone of inhibition at 75 µg/disc: read-out: DIZ.
The subject of assay [16] is Penicillium chrysogenum. The assay can be described thus: Antifungal activity against Penicillium chrysogenum assessed as zone of inhibition at 75 ug/well after 48 hrs by agar well diffusion method.
Assay [17] concerns Bacillus subtilis. As to the kind of experiment: Antimicrobial activity against Bacillus subtilis assessed as zone of inhibition at 75 ug/well after 24 hrs by agar well diffusion method. To be noted: for zone of inhibition at 75 µg/disc: read-out: DIZ.
In assay [18] the test system is Penicillium chrysogenum. As to the kind of experiment: Antifungal activity against Penicillium chrysogenum assessed as zone of inhibition at 50 ug/well after 48 hrs by agar well diffusion method.

SMILES strings stand for the structures. The source made the active and inactive calls. No cut-off for these calls is given here.

Regarding `Cc1ccc(/C=C/S(=O)(=O)NC(=O)c2cccs2)cc1`, the zone of inhibition at 100 µg/disc in the assay on Penicillium chrysogenum [1] was determined as 10 mm; in the assay with Aspergillus niger [6], 12 mm; in the assay with Pseudomonas aeruginosa [7], 9 mm; with Bacillus subtilis [11], 18 mm; in the assay on Klebsiella pneumoniae [12], 16 mm; with Staphylococcus aureus [14], 12 mm. Moreover, the zone of inhibition at 75 µg/disc in the assay on Staphylococcus aureus [2] turned out to be 11 mm; in the assay on Aspergillus niger [10], 8 mm; in the assay on Klebsiella pneumoniae [13], 13 mm; in the assay with Pseudomonas aeruginosa [15] it was 7 mm; in the assay on Bacillus subtilis [17], 15 mm. Further, the results for the zone of inhibition at 50 µg/disc in the assay on Klebsiella pneumoniae [3] and in the assay on Bacillus subtilis [5] were 12 mm and 13 mm, respectively. Further, the “diameter of the inhibition zone (DIZ)” value in the assay on Aspergillus niger [4], in the assay on Pseudomonas aeruginosa [8], in the assay with Staphylococcus aureus [9], with Penicillium chrysogenum [16] and with Penicillium chrysogenum [18] was “inactive” each time.
Turning to `Cc1ccc(C2C(S(=O)(=O)NC(=O)c3cccs3)C(c3ccccc3)=NN2c2ccccc2)cc1` (centres undefined), the “diameter of the inhibition zone (DIZ)” value in the assay on Penicillium chrysogenum [1], in the assay with Staphylococcus aureus [2], in the assay on Klebsiella pneumoniae [3], in the assay with Aspergillus niger [4], in the assay with Bacillus subtilis [5] and in the assay on Pseudomonas aeruginosa [7] was “inactive” each time. Also, the “diameter of the inhibition zone (DIZ)” value in the assay with Pseudomonas aeruginosa [8], in the assay on Staphylococcus aureus [9], in the assay on Bacillus subtilis [11], in the assay with Klebsiella pneumoniae [12], in the assay on Klebsiella pneumoniae [13] and in the assay on Staphylococcus aureus [14] was “inactive” in each case. The “diameter of the inhibition zone (DIZ)” value with Pseudomonas aeruginosa [15], in the assay with Penicillium chrysogenum [16], with Bacillus subtilis [17] and in the assay with Penicillium chrysogenum [18] was “inactive” each time. The zone of inhibition at 100 µg/disc in the assay on Aspergillus niger [6] came out at 10 mm. Further, the zone of inhibition at 75 µg/disc in the assay on Aspergillus niger [10] came out at 8 mm.
As to `Cc1ccc(/C=C/S(=O)(=O)NC(=O)c2ccc(Cl)s2)cc1`, the zone of inhibition at 100 µg/disc in the assay on Penicillium chrysogenum [1] came to 12 mm; with Aspergillus niger [6], 14 mm; in the assay on Pseudomonas aeruginosa [7], 12 mm; in the assay on Bacillus subtilis [11] it was 22 mm; with Klebsiella pneumoniae [12], 17 mm; in the assay on Staphylococcus aureus [14] it was 14 mm. Also, the zone of inhibition at 75 µg/disc in the assay with Staphylococcus aureus [2] worked out at 13 mm; in the assay on Aspergillus niger [10], 11 mm; with Klebsiella pneumoniae [13], 15 mm; with Pseudomonas aeruginosa [15], 11 mm; in the assay with Penicillium chrysogenum [16] (read-out: DIZ), 10 mm; with Bacillus subtilis [17] it was 19 mm. In addition, the zone of inhibition at 50 µg/disc in the assay with Klebsiella pneumoniae [3] was 14 mm; in the assay with Aspergillus niger [4] (read-out: DIZ), 9 mm; in the assay on Bacillus subtilis [5], 17 mm; with Staphylococcus aureus [9] (read-out: DIZ), 10 mm. The “diameter of the inhibition zone (DIZ)” value in the assay with Pseudomonas aeruginosa [8] and in the assay with Penicillium chrysogenum [18] was “inactive” each time.

These data come from ChEMBL document CHEMBL4251595, “Green approach for the synthesis of thiophenyl pyrazoles and isoxazoles by adopting 1,3-dipolar cycloaddition methodology and their antimicrobial activity” (2018).
